According to paper PMC3195835 (International journal of pharmaceutics, 2011):
One block for each compound: values may come before it.

Legend:
[1] = molecular target: T1, P-gp (Homo sapiens, UniProt P08183); conditions: MDCK-MDR1, 150 min
[2] = molecular target: T1, P-gp; assay: cell-based
[3] = tested on: LS-180 cells; assay: [14C] erythromycin uptake in treated LS-180 cells; type: cell-based, human; conditions: LS-180 cells treated 72hrs; gemifloxacin 2.5, 5, 7.5μM, rifampin 10μM
[4] = molecular target: T2, MRP2 (Homo sapiens, UniProt Q92887); assay: cell-based
T2 sequence (Q92887 whole entry): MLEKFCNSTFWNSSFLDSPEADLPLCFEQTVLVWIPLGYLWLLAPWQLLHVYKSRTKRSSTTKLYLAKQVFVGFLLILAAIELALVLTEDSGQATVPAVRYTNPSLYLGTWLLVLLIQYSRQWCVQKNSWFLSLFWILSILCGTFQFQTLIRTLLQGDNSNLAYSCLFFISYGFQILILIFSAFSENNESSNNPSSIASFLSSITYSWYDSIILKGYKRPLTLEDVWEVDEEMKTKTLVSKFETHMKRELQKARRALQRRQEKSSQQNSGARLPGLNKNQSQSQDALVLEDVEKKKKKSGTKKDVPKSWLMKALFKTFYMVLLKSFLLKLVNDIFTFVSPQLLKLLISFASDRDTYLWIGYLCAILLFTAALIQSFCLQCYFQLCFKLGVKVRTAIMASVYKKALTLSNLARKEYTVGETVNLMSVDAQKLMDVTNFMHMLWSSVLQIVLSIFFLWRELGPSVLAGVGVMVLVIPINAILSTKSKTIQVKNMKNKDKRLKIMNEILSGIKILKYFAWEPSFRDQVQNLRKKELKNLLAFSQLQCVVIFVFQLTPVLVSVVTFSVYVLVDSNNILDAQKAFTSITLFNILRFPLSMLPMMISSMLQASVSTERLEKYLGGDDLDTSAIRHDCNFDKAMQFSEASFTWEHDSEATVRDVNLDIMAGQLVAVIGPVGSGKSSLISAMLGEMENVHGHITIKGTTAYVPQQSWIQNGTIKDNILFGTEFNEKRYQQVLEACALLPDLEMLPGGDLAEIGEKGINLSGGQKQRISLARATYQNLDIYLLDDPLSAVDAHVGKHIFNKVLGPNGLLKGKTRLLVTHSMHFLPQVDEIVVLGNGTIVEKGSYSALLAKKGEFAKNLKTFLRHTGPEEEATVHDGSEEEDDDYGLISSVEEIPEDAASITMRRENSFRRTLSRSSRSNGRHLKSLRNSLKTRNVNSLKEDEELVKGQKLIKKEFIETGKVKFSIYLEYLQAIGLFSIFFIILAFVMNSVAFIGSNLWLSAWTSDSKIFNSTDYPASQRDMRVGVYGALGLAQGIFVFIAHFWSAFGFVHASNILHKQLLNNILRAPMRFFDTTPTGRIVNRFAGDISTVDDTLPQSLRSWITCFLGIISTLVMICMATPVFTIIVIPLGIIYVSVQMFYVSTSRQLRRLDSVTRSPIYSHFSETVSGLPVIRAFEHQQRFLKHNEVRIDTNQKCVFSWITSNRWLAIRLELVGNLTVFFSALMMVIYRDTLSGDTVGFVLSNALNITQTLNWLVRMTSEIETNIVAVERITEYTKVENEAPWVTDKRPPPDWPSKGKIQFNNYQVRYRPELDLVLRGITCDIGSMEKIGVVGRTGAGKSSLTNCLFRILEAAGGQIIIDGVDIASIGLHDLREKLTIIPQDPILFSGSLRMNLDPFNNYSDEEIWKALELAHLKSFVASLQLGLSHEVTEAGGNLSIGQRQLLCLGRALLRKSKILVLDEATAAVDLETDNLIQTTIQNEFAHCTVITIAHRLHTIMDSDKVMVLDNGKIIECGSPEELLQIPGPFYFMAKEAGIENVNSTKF

[5] = tested on: MDCKII-MRP2 cells; assay: ATP assay in MDCKII-MRP2 cells; type: cell-based, canine; conditions: 150min
[6] = tested on: MDCKII-MDR1 cells; assay: ATP assay in MDCKII-MDR1 cells; type: cell-based, canine; conditions: 150min
[7] = tested on: MDCKII-MRP2 cells; assay: Cell proliferative; type: cell-based, canine; conditions: 150min
[8] = tested on: MDCKII-MDR1 cells; assay: Cell proliferative; type: cell-based, canine; conditions: 150min
[9] = ref Allen et al., 2000, Zhanel and Noreddin, 2001, cited from earlier work
[10] = molecular target: T2, MRP2; assay: in vitro
[11] = molecular target: T1, P-gp; assay: in vitro; conditions: MDCK-MDR1
[12] = molecular target: T1, P-gp; assay: Cellular accumulation of calcein-AM in MDCKII-MDR1 cells; type: cell-based; conditions: calcein-AM 0.05μM, 15min, quinidine 100μM, gemifloxacin 250μM
[13] = all concentrations 1μM to 1000μM except 1000μM
[14] = gemifloxacin 1000μM, data not shown
[15] = all other concentrations (1μM to below 1000μM)

T1 sequence (P08183 whole entry): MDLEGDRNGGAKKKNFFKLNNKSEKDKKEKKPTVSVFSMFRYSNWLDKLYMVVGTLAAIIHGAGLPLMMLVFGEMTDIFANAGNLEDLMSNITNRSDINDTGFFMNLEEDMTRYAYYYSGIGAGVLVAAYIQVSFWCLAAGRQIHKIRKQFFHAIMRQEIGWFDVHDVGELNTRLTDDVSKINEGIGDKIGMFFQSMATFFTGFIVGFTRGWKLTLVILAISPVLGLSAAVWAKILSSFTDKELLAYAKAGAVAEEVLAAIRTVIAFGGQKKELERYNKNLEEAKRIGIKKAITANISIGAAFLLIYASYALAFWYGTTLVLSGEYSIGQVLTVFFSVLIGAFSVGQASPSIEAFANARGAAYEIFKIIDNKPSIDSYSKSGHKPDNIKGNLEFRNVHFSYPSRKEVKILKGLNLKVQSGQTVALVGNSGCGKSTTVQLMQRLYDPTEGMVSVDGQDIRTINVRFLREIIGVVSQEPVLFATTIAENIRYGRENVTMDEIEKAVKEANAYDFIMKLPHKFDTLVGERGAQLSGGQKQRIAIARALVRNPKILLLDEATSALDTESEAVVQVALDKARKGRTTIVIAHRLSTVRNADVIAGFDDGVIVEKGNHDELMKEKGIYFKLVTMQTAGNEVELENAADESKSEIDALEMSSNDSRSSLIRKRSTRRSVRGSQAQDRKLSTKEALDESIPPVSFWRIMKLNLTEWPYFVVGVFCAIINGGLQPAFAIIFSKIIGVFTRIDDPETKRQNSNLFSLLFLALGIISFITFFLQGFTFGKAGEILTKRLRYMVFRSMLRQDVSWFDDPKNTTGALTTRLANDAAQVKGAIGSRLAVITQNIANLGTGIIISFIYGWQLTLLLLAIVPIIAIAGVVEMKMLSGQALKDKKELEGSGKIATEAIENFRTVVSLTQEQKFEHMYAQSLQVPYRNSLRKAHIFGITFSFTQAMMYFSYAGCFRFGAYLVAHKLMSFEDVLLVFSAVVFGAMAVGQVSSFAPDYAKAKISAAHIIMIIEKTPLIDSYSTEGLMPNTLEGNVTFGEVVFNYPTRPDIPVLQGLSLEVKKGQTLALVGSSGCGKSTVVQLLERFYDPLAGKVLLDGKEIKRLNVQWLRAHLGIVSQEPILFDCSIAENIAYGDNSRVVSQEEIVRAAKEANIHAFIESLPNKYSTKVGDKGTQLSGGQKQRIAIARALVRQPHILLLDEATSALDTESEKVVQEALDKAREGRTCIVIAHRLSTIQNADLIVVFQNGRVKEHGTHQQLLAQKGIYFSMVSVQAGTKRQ

Structure (SMILES): CO[C@H]1/C=C/O[C@@]2(C)Oc3c(C)c(O)c4c(O)c(c(/C=N/N5CCN(C)CC5)c(O)c4c3C2=O)NC(=O)/C(C)=C\C=C\[C@H](C)[C@H](O)[C@@H](C)[C@@H](O)[C@@H](C)[C@H](OC(C)=O)[C@@H]1C [rifampin]
- Decrease in cellular accumulation of [14C] erythromycin post treatment [3]: ~20%

Structure (SMILES): COc1c(N2CCNC(C)C2)c(F)cc2c(=O)c(C(=O)O)cn(C3CC3)c12 (stereo not drawn) [gatifloxacin]
- Absolute (oral) bioavailability [9]: 96%

Further lines, with some results ahead:

- Apparent permeability of [14C] erythromycin, AP-BL, in presence of test compound [1]: 5.24 ± 0.52 × 10-6 cm/sec
- Apparent permeability of [14C] erythromycin, BL-AP, in presence of test compound [1]: 7.38 ± 0.72 × 10-6 cm/sec
- IC50 [2]: 123 ± 2 µM
- IC50 [4]: 16 ± 2 µM
Structure (SMILES): CO/N=C1\CN(c2nc3c(cc2F)c(=O)c(C(=O)O)cn3C2CC2)CC1CN (stereo not drawn) [gemifloxacin]
- Decrease in cellular accumulation of [14C] erythromycin post treatment [3]: ~20%
- Effect on ATP levels compared to control [5, 13]: did not significantly alter ATP levels
- Increase in ATP level [5, 14]: ~10%
- Effect on ATP levels compared to control [6, 13]: did not significantly alter ATP levels
- Increase in ATP level [6, 14]: ~15%
- Cytotoxicity (MTS) [7, 15]: non-cytotoxic
- Decrease in cell viability (MTS) [7, 14]: ~20%
- Cytotoxicity (MTS) [8, 15]: non-cytotoxic
- Decrease in cell viability (MTS) [8, 14]: ~25%
- Time to peak concentration ([9]; oral administration): 0.5 to 2 h
- Absolute (oral) bioavailability [9]: 71%

- Papp A→B at 150 min [10]: 3.76 ± 1.37 ×10⁻⁶ cm/s
- Papp B→A at 150 min [10]: 18.5 ± 1.94 ×10⁻⁶ cm/s
- efflux ratio at 150 min [10]: 4.93
- Papp A→B at 150 min [11]: 2.96 ± 0.37 ×10⁻⁶ cm/s
- Papp B→A at 150 min [11]: 10.6 ± 0.86 ×10⁻⁶ cm/s
- efflux ratio at 150 min [11]: 3.56
Structure (SMILES): CC[C@H]1OC(=O)[C@H](C)[C@@H](O[C@H]2C[C@@](C)(OC)[C@@H](O)[C@H](C)O2)[C@H](C)[C@@H](O[C@@H]2O[C@H](C)C[C@H](N(C)C)[C@H]2O)[C@](C)(O)C[C@@H](C)C(=O)[C@H](C)[C@@H](O)[C@]1(C)O [[^14C] erythromycin, erythromycin]

- Increase in intracellular calcein fluorescence [12]: doubled
Structure (SMILES): C=C[C@H]1C[N@@]2CC[C@H]1C[C@@H]2[C@@H](O)c1ccnc2ccc(OC)cc12 [quinidine]
